Target: T1, dopamine D2 receptor (Rattus norvegicus, UniProt P61169)
T1 construct: from tissue; host or cells: rat striatal brain tissue homogenate
Assay: Dopamine D2 receptor affinity, 3H-quinpirole binding in homogenized rat striatal brain tissue
Protocol: Affinity for the dopamine D2 receptor was established by a modification of the standard experimental test procedure of Seemen and Schaus, European Journal of Pharmacology 203: 105-109, 1991, wherein homogenized rat striatal brain tissue is incubated with ^3H-quinpirole and various concentrations of test compound, filtered and washed and counted in a Betaplate scintillation counter.

T1 sequence (P61169 whole entry): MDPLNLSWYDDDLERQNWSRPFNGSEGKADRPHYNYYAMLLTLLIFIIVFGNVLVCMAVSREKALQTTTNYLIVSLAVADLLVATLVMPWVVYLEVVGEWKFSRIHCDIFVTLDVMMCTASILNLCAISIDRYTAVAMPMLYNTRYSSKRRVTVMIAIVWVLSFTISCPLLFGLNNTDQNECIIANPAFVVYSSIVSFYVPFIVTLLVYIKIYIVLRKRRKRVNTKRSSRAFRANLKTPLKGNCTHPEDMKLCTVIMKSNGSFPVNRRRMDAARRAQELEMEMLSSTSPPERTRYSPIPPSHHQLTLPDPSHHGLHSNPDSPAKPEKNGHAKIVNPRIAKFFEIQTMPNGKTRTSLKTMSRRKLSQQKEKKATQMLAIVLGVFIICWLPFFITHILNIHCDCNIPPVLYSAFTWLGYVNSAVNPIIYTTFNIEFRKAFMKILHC

In order of falling IC50:
1. (2-Trifluoromethyl-7,8-dihydro-3H-6,9-dioxa-1,3-diaza-cyclopenta[a]naphthalen-8-yl)-methylamine [Example 1]  260 nM
2. FC(F)(F)c1nc2c3c(ccc2[nH]1)OCC(CNCc1ccccc1)O3 (stereo not drawn) [Example 3, Benzyl-(2-trifluoromethyl-7,8-dihydro-3H-6,9-dioxa-1,3-diaza-cyclopenta[a]naphthalen-8-ylmethyl)-amine]  2.2 nM
3. FC(F)(F)c1nc2c3c(ccc2[nH]1)OC[C@H](CNCCCCc1ccccc1)O3 [Example 2, (4-Phenyl-butyl)-(2-trifluoromethyl-7,8-dihydro-3H-6,9-dioxa-1,3-diaza-cyclopenta[a]naphthalen-8-ylmethyl)-amine]  0.4 nM

Source: patent US6803368B2, “Antipsychotic aminomethyl derivatives of 7,8-dihydro-3H-6,9-dioxa-1,3-diaza-cyclopenta[a]naphthalene” (Wyeth, priority 2001, dated 2004)
